Among the data in patent US20230322753A1, “HETEROARYL DERIVATIVE, METHOD FOR PREPARATION THEREOF, AND PHARMACEUTICAL COMPOSITION COMPRISING SAME AS ACTIVE INGREDIENT” (VORONOI INC., priority 2020, published 2023) are GI50 values, retold here.

Format in all cases: cell-based
What all share (settings): Mus musculus, BaF3, 72 hours, CellTiter-Glo
For orientation: ATP-based viability assays read luminescence as a measure of living cells.

Assay [1] deals with Ba/F3 cells expressing HER2 YVMA Exon 20ins. In words: Ba/F3 proliferation suppression activity, cells expressing HER2 YVMA Exon 20ins. The protocol:
(§1) For the Ba/F3 cells, a RPMI-1640 medium containing 10% FBS and 5 ng/ml IL-3 (R&D Systems) was used. The transduced Ba/F3 cells were cultured in a medium, which is same as the above medium, but 1 ug/ml puromycin (Invitrogen) was additionally added to.
(§2) 24 hours before the treatment of the cells with the compounds, 3000 to 5000 cells were distributed into each well of a white clear bottom 96 well plate (Corning). The compounds were diluted in a dimethyl sulfoxide (e.g. dilution ratio of 3:1 and total 12 concentrations) and then injected by 0.5 ul respectively, such that a final concentration amounted to 0.3 nM to 50 uM. 72 hours after the treatment with the compounds, the measurement of live cells was made in such way that these cells were stored for 10 minutes at a room temperature using a CellTiter-Glo luminescent cell-viability reagent (Promega) and then their luminescence intensities were measured using a reader (i.e. Synergy Neo, Biotek). Each test was repeated three times.
(§3) resulting values were calculated as a cell growth ratio (%) compared to a control. Then, the graphs were drawn and the […] values were calculated by using a program, GraphPad Prism version 5.0.

The test system of assay [2] is Ba/F3 cells expressing EGFR Exon20 ins NPH. In words: Ba/F3 proliferation suppression activity, cells expressing EGFR Exon20 ins NPH. The protocol: A following experiment was carried out to evaluate the suppression activity of the compounds according to the present invention against the proliferation of Ba/F3 which expresses EGFR mutations.
as §1, §2, §3

Assay [3] relates to Ba/F3 cells expressing HER2 WT. In words: Ba/F3 proliferation suppression activity, cells expressing ErbB2 (HER2) wild type. The protocol:
as §1, §2, §3

Some results are limits rather than exact numbers.

What is called GI50 is the concentration that inhibits growth by half. For the compound `C=CCN1CCN(c2cc(OC)c(Nc3cc(N4OCC[C@@H]4c4ccc(F)c(C(F)(F)F)c4)ncn3)cc2NC(=O)C=C)CC1` [Compound 41], the 50% growth inhibitory concentration (GI50) in assay [1], in assay [2] and in assay [3] was less than 50 nM throughout.

Consider `C=CC(=O)Nc1cc(Nc2cc(N3OCC[C@@H]3c3ccc(F)c(C(F)(F)F)c3)ncn2)c(OC)cc1N1CCC(N2CCN(C3CC3)[C@@H](C)C2)CC1` [Compound 52], for which the GI50 in assay [1], in assay [2] and in assay [3] was less than 50 nM each time.

`C=CC(=O)Nc1cc(Nc2cc(N3OCC[C@@H]3c3ccc(F)c(C(F)(F)F)c3)ncn2)c(OC)cc1N1CCN(CCC)CC1` [Compound 55]: the GI50 in assay [1], in assay [2] and in assay [3] was less than 50 nM throughout.

As for `C=CC(=O)Nc1cc(Nc2cc(N3OCC[C@@H]3c3ccc(F)c(C(F)(F)F)c3)ncn2)c(OC)cc1N1CCC(N2CCO[C@@H](C)C2)CC1` [Compound 58], the 50% growth inhibitory concentration (GI50) in assay [1] and in assay [2] was less than 50 nM throughout.

For the compound `C=CC(=O)Nc1cc(Nc2cc(N3OCC[C@@H]3c3cccc(C(F)(F)F)c3F)ncn2)c(OC)cc1N1CCN(C)CC1` [Compound 60], the GI50 in assay [1] and in assay [2] was less than 50 nM each time.

In the case of `C=CC(=O)Nc1cc(Nc2cc(N3OCC[C@@H]3c3cccc(C(F)(F)F)c3F)ncn2)c(OC)cc1N(C)CCN(C)C` [Compound 61], the GI50 in assay [1] and in assay [2] was less than 50 nM in each case.

On to `C=CC(=O)Nc1cc(Nc2cc(N3OCC[C@@H]3c3cccc(C(F)(F)F)c3F)ncn2)c(OC)cc1N1CCC(N2CCN(C3CC3)CC2)CC1` [Compound 62], for which the GI50 in assay [1] and in assay [2] was less than 50 nM throughout.
